From US11167006B2 (Shanghai Tianci Life Science Development Co., Ltd., priority 2016, dated 2021)
Square brackets hold non-standard residues; d marks the D form. Peptide text beside a SMILES is read from it. NMeF = CN[C@@H](Cc1ccccc1)C(=O)O

Experiments:
[1] = system: male mice of Kunming strain; assay: Analgesic tolerance test (photothermal tail flick); type: in vivo, mouse
Protocol: The mice were injected with the drug in the lateral ventricle of the mice for six consecutive days or in the subcutaneous of the mice for eight consecutive days, and their analgesic tolerance were detected by photothermal tail flick method, and the pharmacological activity of the compounds of the present invention in analgesic tolerance was further explored.
In male mice of Kunming strain, the drug was injected continuously in the lateral ventricle for six days, once a day, and the effect of continuous injection of drugs on the pain sensation was detected by a photothermal tail flick instrument. The ambient temperature is controlled at 22±1° C., and the experimental animals are free to eat and drink. The test drug was injected into the lateral ventricle of the mouse for 6 consecutive days, 4 μl per injection. The basic tail flick incubation period (3-5 seconds) was measured before the first day of drug injection, and those mice that were too sensitive or dull were discarded. The tail flick incubation period of 5, 10, 15, 20, 30 min after administration on the first and sixth days was recorded in the experiment. To prevent scald on the tail of the mouse, the maximum tail flick incubation period was set as 10 seconds,
In addition, we further studied the tolerance of subcutaneous administration of compound 9 and morphine in the photothermal tail flick test. The ambient temperature is controlled at 22±1° C., and the experimental animals are free to eat and drink. First, the basic tail flick incubation period (3-5 seconds) of the mice was measured before administration, and then compound 9 or morphine was administered subcutaneously for eight consecutive days. The tail flick incubation period of 10, 15 and 20 minutes after daily administration were recorded. To prevent scald on the tail of the mouse, the maximum tail flick incubation period was set as 10 seconds.
The experimental data is expressed by MPE (maximum possible effect), MPE (%)=100×[(pain threshold after administration−basal pain threshold)/(10 seconds−basal pain threshold)]. The analgesic tolerance of the drug was compared using the MPE value at the time of maximum analgesic effect of the drug. MPE data was expressed as mean±standard error (Means±S.E.M.). The difference in the analgesic effect of continuous administration in the lateral ventricle of the mice for six days was statistically analyzed by the paired T test, and the difference in the analgesic effect of subcutaneous continuous administration for eight days was analyzed by One-way analysis of variance (one-way ANOVA's Tukey HSD test) for statistics, and ***P<0.001 indicates a significant difference from the analgesic effect of the drug injected on the first day.

[2] = system: visceral pain induced by intraperitoneal injection of acetic acid solution in mice; assay: Acetic acid writhing visceral pain model; type: in vivo, mouse
Protocol: The mice were placed in a transparent polymethyl methacry late box (20×20×30 cm) and adapted to the environment for 10-15 min; after the adaptation, compound 9 was administered intrathecally, intraperitoneally or subcutaneously to the mice. After 5 min, the mice were intraperitoneally injected with 10 ml/kg of 0.6% acetic acid solution, 5 min. after the intraperitoneal injection of acetic acid solution, the writhing response of the mice was recorded for 10 min. The mice developed characteristic reactions such as twisting of the trunk, concave in the abdomen, elevation of the buttocks and extension of the hind limbs, which were recorded as a writhing reaction.
The experimental data was expressed by MPE (maximum possible effect), MPE (%)=100×[(the number of writhing bodies in the physiological saline group− the number of writhing bodies in the drug group)/the number of writhing bodies in the physiological saline group]. The relevant MPE data were expressed as mean±standard error (Means±S.E.M.), the data for differences between groups treated with different drug concentrations were analyzed by one-way ANOVA (Bonferroni test in one-way ANOVA) for statistics and analysis, ***P<0.001 represents that there was a significant difference between the MPE value of the drug-treated group and that of the saline group.

[3] = system: CFA-induced inflammatory pain in mouse; assay: Analgesic tolerance and cross-tolerance in CFA-induced inflammatory pain; type: in vivo
Protocol: CFA-induced inflammatory pain in mouse was detected by an electronic Von Frey tenderness instrument, and the basal pain threshold of normal mice was Firstly determined. Then […] of CFA solution was injected subcutaneously into the mouse paw. After 4 days, the mechanical pain sensitivity value of the injected paw of the mouse was measured. And then compound 9 or morphine was injected for 6 consecutive days (lateral ventricle) or 7 consecutive days (subcutaneously), and the mice in morphine group were given compound 9 on day 7 (lateral ventricle) or day 8 (subcutaneous). The mechanical pain thresholds at different time points after administration were recorded.
The experimental data were expressed as mean± standard error (Means±S.E.M.). Data for differences between groups treated with the same drug were analyzed by one-way ANOVA (Tukey HSD test of one-way ANOVA) for statistics and analysis, *P<0.05. **P<0.005, ***P<0.001 indicates a significant difference between the mechanical pain threshold of the drug-treated group and the pain threshold after the first day of administration.

[4] = system: blood pressure of Wistar male rats; assay: Blood pressure in anesthetized rats; type: in vivo; details: rat, intrathecal; doses 1, 3, 10, 30 nmol
From the text: Wistar male rats weighing 200-250 g. After urethane (1.3 g/kg) anesthesia, the trachea was cut to prevent suffocation. The femoral was isolated and a PE-10 artery cannula was inserted in an insertion depth of approximately 2 cm. The arterial cannula was connected to a pressure transducer PT-100, and the PT-100 was connected to a biofunctional experiment BL-420F system to record mean arterial pressure and pulsatile arterial pressure. An additional PE-10 was inserted from the lumbar vertebra L4-L5 and inserted 3 cm along the subarachnoid space up to the spine T12-L1 for intrathecal administration. After the surgery, the rats were allowed to stabilize for 30 min. Then, intrathecal administration of physiological saline or different doses of the drug, the dose of the drug was from small to large, and each dose interval was more than 40 min. Changes in blood pressure of the rats after administration were recorded.
The experimental results of cardiovascular regulation in rats were expressed as changes in blood pressure, and the relevant data were expressed as mean±standard error (Means±S.E.M.), Differences between groups treated with different drug concentrations were analyzed by one-way ANOVA (Bonferroni test in one-way ANOVA) for data statistics and analysis.

mice = assay: Naloxone withdrawal test; type: in vivo, mouse; details: s.c. at 8 hours intervals 20, 40, 60, 80, 100, 100, 100 mg/kg; naloxone 1 mg/kg; 30 minutes

C[C@@H](NC(=O)[C@@H](N)Cc1ccc(O)cc1)C(=O)NCC(=O)N(C)[C@@H](Cc1ccccc1)C(=O)NCC(=O)N1CCC[C@H]1C(=O)N[C@@H](CCC(N)=O)C(=O)N[C@@H](CCCNC(=N)N)C(=O)N[C@@H](Cc1ccccc1)C(N)=O [Compound 9, Tyr-D-Ala-Gly-NMe-Phe-Gly-Pro-Gln-Arg-Phe-NH2] (H-Y[dA]G[NMeF]GPQRF-NH2)
analgesic tolerance ([1]; eight consecutive days subcutaneous, 10 mg/kg): not significantly different from that of the first day
analgesia effect compared with morphine ([1]; tail flick, subcutaneous 10 mg/kg): equivalent to that of an equal dose of morphine
ED50 value (95% confidence interval) ([2]; intraperitoneal (i.p.)): 0.721 (0.594 to 0.875) mg/kg
ED50 value (95% confidence interval) ([2]; intrathecal (i.t.)): 0.657 (0.595 to 0.727) pmol
ED50 value (95% confidence interval) ([2]; subcutaneous (s.c.)): 0.789 (0.702 to 0.887) mg/kg
analgesic tolerance on continuous injection ([3]; mechanical pain, lateral ventricle 6 days or subcutaneous 7 days): not significantly different from that of the first day
cross-tolerance between compound 9 and morphine ([3]; morphine-tolerant mice given compound 9 on day 7 (lateral ventricle) or day 8 (subcutaneous)): no cross-tolerance
dose producing a significant blood pressure-lowering effect [4]: more than 1 nmol
average number of jumps after naloxone withdrawal (mice): 11.63
